According to US20100298141A1, “SUBSTITUTED PYRIDINE N-OXIDE HERBICIDES” (E. I. DU PONT DE NEMOURS AND COMPANY, priority 2007, published 2010):

How the values were obtained:
giant foxtail [1] = assay: Test C pre-/postemergence test; format: in vivo, Setaria faberii; conditions: Preemergence
In short: (§1)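 Test chemicals were formulated with surfactant in a non-phytotoxic solvent and sprayed both on freshly planted seeds (preemergence) and on 1- to 4-leaf plants of 2–18 cm (postemergence). Flooded-paddy pots received compound directly into 3 cm of standing water, maintained for the test.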

corn = assay: Test A pre-/postemergence greenhouse test; format: in vivo, Zea mays; conditions: for Corn plant response rating: 0 to 100 scale
In short: (§2)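 Pots of loam–sand soil sown with the test species are sprayed preemergence on the soil surface; emerged seedlings (1–2 leaves, 2–10 cm) are sprayed postemergence at the same time. The vehicle is a non-phytotoxic solvent mixture with surfactant. Injury is scored visually after ~10 d in greenhouse.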

rice = assay: Test C flooded paddy test; format: in vivo, Oryza sativa; conditions: Flood
In short: (§3)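 Greenhouse pots flooded to 3 cm above soil at time of treatment received compound via the water, which stayed at that level.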

crabgrass = assay: Test C pre-/postemergence test; format: in vivo, Digitaria sanguinalis; conditions: Preemergence
In short: as §1

barnyardgrass = assay: Test C flooded paddy test; format: in vivo, Echinochloa crus-galli; conditions: Flood
In short: as §3

giant foxtail [2] = assay: Test A pre-/postemergence greenhouse test; format: in vivo, Setaria faberi; conditions: for Foxtail, Giant plant response rating: 0 to 100 scale
In short: as §2

pigweed = assay: Test C pre-/postemergence test; format: in vivo, Amaranthus retroflexus; conditions: Preemergence
In short: as §1

wheat = assay: Test A pre-/postemergence greenhouse test; format: in vivo, Triticum aestivum; conditions: for Wheat plant response rating: 0 to 100 scale
In short: as §2

Surinam grass = assay: Test C pre-/postemergence test; format: in vivo, Brachiaria decumbens; conditions: Preemergence
In short: as §1

downy brome = assay: Test C pre-/postemergence test; format: in vivo, Bromus tectorum
In short: as §1

velvetleaf = assay: Test A pre-/postemergence greenhouse test; format: in vivo, Abutilon theophrasti; conditions: for Velvetleaf plant response rating: 0 to 100 scale
In short: as §2

johnsongrass = assay: Test C pre-/postemergence test; format: in vivo, Sorghum halepense; conditions: Preemergence
In short: as §1

soybean = assay: Test C pre-/postemergence test; format: in vivo, Glycine max; conditions: Preemergence
In short: as §1

lambsquarters = assay: Test C pre-/postemergence test; format: in vivo, Chenopodium album; conditions: Preemergence
In short: as §1

catchweed bedstraw = assay: Test C pre-/postemergence test; format: in vivo, Galium aparine; conditions: Preemergence
In short: as §1

morningglory = assay: Test C pre-/postemergence test; format: in vivo, Ipomoea coccinea; conditions: Preemergence
In short: as §1

bermudagrass = assay: Test C pre-/postemergence test; format: in vivo, Cynodon dactylon
In short: as §1

[3] = 31 g ai/ha, scale 0 to 100 (0 no effect, 100 complete control)
[4] = Postemergence, 125 g ai/ha, 0 is no effect, 100 is complete control
[5] = Postemergence, 500 g ai/ha, 0 is no effect, 100 is complete control
[6] = Preemergence, 125 g ai/ha, 0 no effect, 100 complete control
[7] = Preemergence, 500 g ai/ha, 0 to 100 scale where 0 is no effect and 100 is complete control
[8] = 62 g ai/ha, scale 0 to 100, 0 no effect, 100 complete control, 13 to 15 days
[9] = 125 g ai/ha, scale 0 to 100, 0 no effect, 100 complete control, 13 to 15 days
[10] = 250 g ai/ha, scale 0 to 100 (0 no effect, 100 complete control)
[11] = Preemergence, 31 g ai/ha, scale 0 to 100 (0 no effect, 100 complete control)
[12] = preemergence, 125 g ai/ha, scale 0 (no effect) to 100 (complete control)

## Cn1nc(C(F)(F)F)c(C[S+]([O-])c2ccc(Cl)c[n+]2[O-])c1Cl (racemic) [Compound 17]
Giant foxtail [1]; 62 g ai/ha, scale 0 to 100
  Foxtail, Giant plant response rating: 100
Giant foxtail [1]; [3]
  Plant response rating, Foxtail, Giant: 95
Giant foxtail [1]; 250 g ai/ha
  Plant response rating (0 to 100), Foxtail, Giant: 100
corn; [4]
  Corn plant response rating: 50
corn; [5]
  Corn plant response rating: 60
corn; [6]
  Corn plant response rating: 0
corn; [7]
  Plant response rating, Corn: 80
rice; [3]
  Plant response rating, Rice: 0
rice; [8]
  Plant response rating, Rice: 70
rice; [9]
  Plant response rating, Rice: 75
rice; [10]
  Plant response rating, Rice: 80
crabgrass; 62 g ai/ha, scale 0 to 100
  Crabgrass, Large plant response rating: 100
crabgrass; [3]
  Plant response rating, Crabgrass, Large: 98
crabgrass; 250 g ai/ha
  Plant response rating (0 to 100), Crabgrass, Large: 100
barnyardgrass; [3]
  Plant response rating, Barnyardgrass: 20
barnyardgrass; [8]
  Plant response rating, Barnyardgrass: 65
barnyardgrass; [9]
  Plant response rating, Barnyardgrass: 85
barnyardgrass; [10]
  Plant response rating, Barnyardgrass: 85
Giant foxtail [2]; [4]
  Foxtail, Giant plant response rating: 80
Giant foxtail [2]; [5]
  Foxtail, Giant plant response rating: 90
Giant foxtail [2]; [6]
  Foxtail, Giant plant response rating: 100
Giant foxtail [2]; [7]
  Plant response rating, Foxtail, Giant: 100
pigweed; 62 g ai/ha, scale 0 to 100
  Pigweed plant response rating: 100
pigweed; [3]
  Plant response rating, Pigweed: 100
wheat; [4]
  Wheat plant response rating: 50
wheat; [5]
  Wheat plant response rating: 60
wheat; [6]
  Wheat plant response rating: 50
wheat; [7]
  Plant response rating, Wheat: 80
Surinam grass; 62 g ai/ha, scale 0 to 100
  Surinam Grass plant response rating: 95
Surinam grass; [3]
  Plant response rating, Surinam Grass: 0
Downy brome; 62 g ai/ha, Preemergence, scale 0 to 100
  Bromegrass, Downy plant response rating: 40
Downy brome; [11]
  Plant response rating, Bromegrass, Downy: 40
Downy brome; Preemergence, 250 g ai/ha
  Plant response rating (0 to 100), Bromegrass, Downy: 85
Downy brome; [12]
  Bromegrass, Downy plant response rating: 80
velvetleaf; [4]
  Velvetleaf plant response rating: 50
velvetleaf; [5]
  Velvetleaf plant response rating: 80
velvetleaf; [6]
  Velvetleaf plant response rating: 60
velvetleaf; [7]
  Plant response rating, Velvetleaf: 100
johnsongrass; 62 g ai/ha, scale 0 to 100
  Johnsongrass plant response rating: 100
johnsongrass; [3]
  Plant response rating, Johnsongrass: 98
johnsongrass; 250 g ai/ha
  Plant response rating (0 to 100), Johnsongrass: 100
soybean; 62 g ai/ha, scale 0 to 100
  Soybean plant response rating: 20
soybean; [3]
  Plant response rating, Soybean: 0
lambsquarters; 62 g ai/ha, scale 0 to 100
  Lambsquarters plant response rating: 100
lambsquarters; [3]
  Plant response rating, Lambsquarters: 100
Catchweed bedstraw; [3]
  Plant response rating, Galium: 100
Catchweed bedstraw; 250 g ai/ha
  Plant response rating (0 to 100), Galium: 100
morningglory; 62 g ai/ha, scale 0 to 100
  Morningglory plant response rating: 85
morningglory; [3]
  Plant response rating, Morningglory: 0
bermudagrass; 62 g ai/ha, Preemergence, scale 0 to 100 (0 no effect, 100 complete control)
  Bermudagrass plant response rating: 100
bermudagrass; [11]
  Plant response rating, Bermudagrass: 80
bermudagrass; Preemergence, 250 g ai/ha
  Plant response rating (0 to 100), Bermudagrass: 100
bermudagrass; [12]
  Bermudagrass plant response rating: 100
